Laboratory results: PubChem BioAssay AID330 (DTP/NCI, 2004)
“And” between values parts separate entries of the source, which are not always exact repeats. Identical values can stand only once. Toxic doses and inconclusive results are not listed. Rule for the calls: active = survival T/C of 150% or more; inactive = T/C below 125% in these data.

Test system: P388 leukemia ip, CD2F1 mice, survival T/C
Experiment: NCI In Vivo Anticancer Drug Screen. Data for tumor model P388 Leukemia (intraperitoneal) in CD2F1 (CDF1) mice
Conditions: endpoint: median survival time, higher = longer survival
Method in brief: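 Mice carrying the transplanted tumor received test compound or vehicle. Survival was recorded in each group, and the value is the treated-group measurement divided by that of the vehicle-treated control group.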

[1] = dose: 50.0 mg/kg/injection, schedule: Q01DX005 (ip), vehicle: saline
[2] = dose: 100.0 mg/kg/injection, schedule: Q01DX005 (ip), vehicle: saline
[3] = dose: 200.0 mg/kg/injection, schedule: Q01DX005 (ip), vehicle: saline
[4] = dose: 30.0 mg/kg/injection, schedule: Q01DX005 (ip), vehicle: Klucel (hydroxypropylcellulose) (HPC)
[5] = dose: 60.0 mg/kg/injection, schedule: Q01DX005 (ip), vehicle: Klucel (hydroxypropylcellulose) (HPC)
[6] = dose: 120.0 mg/kg/injection, schedule: Q01DX005 (ip), vehicle: Klucel (hydroxypropylcellulose) (HPC)
[7] = dose: 240.0 mg/kg/injection, schedule: Q01DX005 (ip), vehicle: Klucel (hydroxypropylcellulose) (HPC)
[8] = dose: 25.0 mg/kg/injection, schedule: Q01DX009 (ip), vehicle: saline with Tween-80
[9] = dose: 100.0 mg/kg/injection, schedule: Q01DX009 (ip), vehicle: saline with Tween-80
[10] = dose: 200.0 mg/kg/injection, schedule: Q01DX009 (ip), vehicle: saline with Tween-80
[11] = dose: 60.0 mg/kg/injection, schedule: Q01DX005 (ip), vehicle: saline with Tween-80
[12] = dose: 120.0 mg/kg/injection, schedule: Q01DX005 (ip), vehicle: saline with Tween-80
[13] = dose: 240.0 mg/kg/injection, schedule: Q01DX005 (ip), vehicle: saline with Tween-80
[14] = dose: 50.0 mg/kg/injection, schedule: Q01DX005 (ip), vehicle: Klucel (hydroxypropylcellulose) (HPC)
[15] = dose: 100.0 mg/kg/injection, schedule: Q01DX005 (ip), vehicle: Klucel (hydroxypropylcellulose) (HPC)
[16] = dose: 200.0 mg/kg/injection, schedule: Q01DX005 (ip), vehicle: Klucel (hydroxypropylcellulose) (HPC)
[17] = dose: 60.0 mg/kg/injection, schedule: Q01DX005 (ip), vehicle: Klucel + Tween-80
[18] = dose: 120.0 mg/kg/injection, schedule: Q01DX005 (ip), vehicle: Klucel + Tween-80
[19] = dose: 240.0 mg/kg/injection, schedule: Q01DX005 (ip), vehicle: Klucel + Tween-80

Measured: T/C

O=c1[nH]c2ccccc2cc1CBr
inactive: dose: 50.0 mg/kg/injection, schedule: Q04DX002 (ip), vehicle: Klucel (hydroxypropylcellulose) (HPC) 95 % of control | dose: 100.0 mg/kg/injection, schedule: Q04DX002 (ip), vehicle: Klucel (hydroxypropylcellulose) (HPC) 102 % of control and 104 % of control | dose: 400.0 mg/kg/injection, schedule: Q04DX002 (ip), vehicle: Klucel (hydroxypropylcellulose) (HPC) 96 % of control

O=C1CN(C2OC(CO)C(O)C2O)C(=O)NC1=O (stereo not drawn)
inactive: dose: 25.0 mg/kg/injection, schedule: Q01DX005 (ip), vehicle: saline 112 % of control | [1] 113 % of control | dose: 50.0 mg/kg/injection, schedule: Q01DX005 (ip), vehicle: suspension in saline 100 % of control | [2] 99 % of control and 116 % of control | dose: 100.0 mg/kg/injection, schedule: Q01DX005 (ip), vehicle: suspension in saline 107 % of control | [3] 116 % of control | dose: 200.0 mg/kg/injection, schedule: Q01DX005 (ip), vehicle: suspension in saline 109 % of control | dose: 400.0 mg/kg/injection, schedule: Q01DX005 (ip), vehicle: suspension in saline 116 % of control

O=C(O)c1cc2c3ccccc3sc2c2ccccc12
inactive: [4] 93 % of control | [5] 93 % of control | [6] 90 % of control | [7] 90 % of control

COc1cc(-c2c(C#N)c(OC)[nH]c(=O)c2C#N)cc(OC)c1OC
inactive: dose: 12.5 mg/kg/injection, schedule: Q01DX009 (ip), vehicle: saline with Tween-80 105 % of control | [8] 102 % of control | dose: 50.0 mg/kg/injection, schedule: Q01DX009 (ip), vehicle: saline with Tween-80 102 % of control and 105 % of control | [9] 96 % of control | [10] 95 % of control

COc1ccc2cc1Oc1ccc(cc1)CC1c3cc(c(OC)cc3CCN1C)Oc1c(O)c(OC)cc3c1C(C2)N(C)CC3 (stereo not drawn)
inactive: dose: 15.0 mg/kg/injection, schedule: Q01DX009 (ip), vehicle: Klucel (hydroxypropylcellulose) (HPC) 95 % of control | dose: 30.0 mg/kg/injection, schedule: Q01DX009 (ip), vehicle: Klucel (hydroxypropylcellulose) (HPC) 93 % of control | dose: 60.0 mg/kg/injection, schedule: Q01DX009 (ip), vehicle: Klucel (hydroxypropylcellulose) (HPC) 97 % of control

COc1cccc(/C=N\O)c1
inactive: [9] 104 % of control | [10] 100 % of control | dose: 400.0 mg/kg/injection, schedule: Q01DX009 (ip), vehicle: saline with Tween-80 104 % of control

CC(C)(C)c1ccc(C(C)(C)C)c(N2C(=O)c3ccc4c5ccc6c7c(ccc(c8ccc(c3c48)C2=O)c75)C(=O)N(c2cc(C(C)(C)C)ccc2C(C)(C)C)C6=O)c1
inactive: [11] 95 % of control | [12] 90 % of control | [13] 99 % of control

COc1ccc(C2COc3c(ccc(O)c3O)C2)cc1OC (stereo not drawn)
inactive: [11] 94 % of control | [12] 94 % of control | [13] 94 % of control

O=C1c2ccccc2C(=O)N1CCNCCN1C(=O)c2ccccc2C1=O
inactive: [11] 103 % of control | [12] 93 % of control | [13] 93 % of control

Nc1nc(C2CCCC2)c(Br)c(=O)[nH]1
inactive: [14] 101 % of control | [15] 103 % of control | [16] 105 % of control

COc1ccc2c(OC)c(CC(=O)C(C)(C)O)c(=O)n(C)c2c1OC
inactive: dose: 19.0 mg/kg/injection, schedule: Q01DX005 (ip), vehicle: Klucel (hydroxypropylcellulose) (HPC) 96 % of control | dose: 38.0 mg/kg/injection, schedule: Q01DX005 (ip), vehicle: Klucel (hydroxypropylcellulose) (HPC) 92 % of control | dose: 76.0 mg/kg/injection, schedule: Q01DX005 (ip), vehicle: Klucel (hydroxypropylcellulose) (HPC) 88 % of control | dose: 152.0 mg/kg/injection, schedule: Q01DX005 (ip), vehicle: Klucel (hydroxypropylcellulose) (HPC) 91 % of control

Fc1ccc(-c2cc(-c3cc(-c4ccc(F)cc4)n[nH]3)[nH]n2)cc1
inactive: [17] 91 % of control | [18] 88 % of control | [19] 88 % of control

Cc1ccc(N(C(=O)c2ccc(Cl)cc2)C(=S)C#N)cc1
inactive: [17] 89 % of control | [18] 95 % of control | [19] 103 % of control

CCCCN(CCCC)CCN1C(=O)c2ccccc2S1(=O)=O
inactive: [1] 104 % of control | [2] 109 % of control | [3] 102 % of control

O=C(/C=C/c1ccccc1O)/C=C/c1ccccc1O
inactive: dose: 8.0 mg/kg/injection, schedule: Q01DX009 (ip), vehicle: saline with Tween-80 118 % of control | dose: 12.0 mg/kg/injection, schedule: Q01DX009 (ip), vehicle: saline with Tween-80 118 % of control | dose: 18.0 mg/kg/injection, schedule: Q01DX009 (ip), vehicle: saline with Tween-80 113 % of control | [8] 115 % of control

CCCCCC/C(CC(SCC)c1ccccc1Cl)=N\NC(N)=S (stereo not drawn)
inactive: [11] 91 % of control | [12] 96 % of control | [13] 91 % of control

N#Cc1nnc2cc(-c3ccccc3)nn2c1-c1cccs1
inactive: [5] 86 % of control | [6] 90 % of control | [7] 87 % of control

CN(CCC(=O)c1ccc(Cl)cc1)CCC(=O)c1ccc(Cl)cc1
inactive: [14] 117 % of control | [15] 108 % of control | [16] 104 % of control

CCC1C[N+]2=C(c3cc(OC)c(OC)cc3CC2)c2c1cc1n2CCc2cc(OC)c(OC)cc2-1 (stereo not drawn)
inactive: dose: 0.75 mg/kg/injection, schedule: Q01DX005 (ip), vehicle: saline with Tween-80 101 % of control | dose: 1.5 mg/kg/injection, schedule: Q01DX005 (ip), vehicle: saline with Tween-80 109 % of control | dose: 3.0 mg/kg/injection, schedule: Q01DX005 (ip), vehicle: saline with Tween-80 117 % of control | dose: 3.12 mg/kg/injection, schedule: Q01DX005 (ip), vehicle: saline with Tween-80 111 % of control | dose: 6.25 mg/kg/injection, schedule: Q01DX005 (ip), vehicle: saline with Tween-80 109 % of control | dose: 12.5 mg/kg/injection, schedule: Q01DX005 (ip), vehicle: saline with Tween-80 114 % of control

S=C(SCc1nc(-c2ccc(Cl)cc2)no1)N1CCSCC1
inactive: [11] 97 % of control | [12] 92 % of control | [13] 105 % of control

O=c1oc(-c2ccccc2)nc2c1sc1nc(-c3ccccc3)oc(=O)c12
inactive: dose: 1.56 mg/kg/injection, schedule: Q01DX005 (ip), vehicle: Klucel (hydroxypropylcellulose) (HPC) 93 % of control | dose: 3.12 mg/kg/injection, schedule: Q01DX005 (ip), vehicle: Klucel (hydroxypropylcellulose) (HPC) 101 % of control and 91 % of control and 96 % of control | dose: 6.25 mg/kg/injection, schedule: Q01DX005 (ip), vehicle: Klucel (hydroxypropylcellulose) (HPC) 87 % of control and 88 % of control and 89 % of control | [14] 88 % of control and 92 % of control

C(CCc1nn[nH]n1)CCC1CCCCC1
inactive: dose: 50.0 mg/kg/injection, schedule: Q01DX005 (ip), vehicle: saline with Tween-80 96 % of control | dose: 100.0 mg/kg/injection, schedule: Q01DX005 (ip), vehicle: saline with Tween-80 107 % of control

CC1(C)CCC2(C(=O)O)CCC3(C)C(=CCC4C5(C)CCC(OC6OC(CO)C(O)C(OC7OC(CO)C(O)C(O)C7O)C6OC6OC(CO)C(O)C(O)C6O)C(C)(C)C5CCC43C)C2C1 (stereo not drawn)
inactive: dose: 3.75 mg/kg/injection, schedule: Q01DX005 (ip), vehicle: Klucel (hydroxypropylcellulose) (HPC) 102 % of control | dose: 7.5 mg/kg/injection, schedule: Q01DX005 (ip), vehicle: Klucel (hydroxypropylcellulose) (HPC) 100 % of control | dose: 15.0 mg/kg/injection, schedule: Q01DX005 (ip), vehicle: Klucel (hydroxypropylcellulose) (HPC) 88 % of control | [4] 100 % of control

CC(=O)OC(C)(C)c1ccccc1[S+]1OC(C)(C)c2ccccc21 (stereo not drawn)
inactive: dose: 25.0 mg/kg/injection, schedule: Q01DX001 (ip), vehicle: other 101 % of control | dose: 50.0 mg/kg/injection, schedule: Q01DX001 (ip), vehicle: other 104 % of control | dose: 100.0 mg/kg/injection, schedule: Q01DX001 (ip), vehicle: other 107 % of control

O=C(CCl)NCCCl
inactive: dose: 50.0 mg/kg/injection, schedule: Q01DX009 (ip), vehicle: saline 97 % of control | dose: 100.0 mg/kg/injection, schedule: Q01DX009 (ip), vehicle: saline 100 % of control
